The values that follow come from publication PMC9927415, “Tyrosine Kinase Inhibitors Display Potent Activity against Cryptosporidium parvum” (Microbiology Spectrum, 2022).

Holding throughout (test): KINOMEscan competitive binding, whole panel
Assay [1] has as its target T1, panel of 203 kinases (Homo sapiens, UniProt P08069).
T1 construct: purchased DiscoverX (KINOMEscan)
The note with it: 10 µM, n=1; kinase IGF1R; read-out: Percent inhibition IGF1R. In a few lines:
(§1)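 This competitive binding format measures displacement of T7 phage-tagged kinases from an immobilized ATP-site ligand by the test compound; values are percentage inhibition.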

Assay [2] has as its target T2, panel of 203 kinases (Homo sapiens, UniProt P36894).
T2 construct: purchased DiscoverX (KINOMEscan)
The note with it: 10 µM, n=1; kinase BMPR1A; read-out: Percent inhibition BMPR1A. In outline: as §1

Assay [3] addresses T3, panel of 203 kinases (Homo sapiens, UniProt Q8N752).
T3 construct: purchased DiscoverX (KINOMEscan)
T3 sequence (Q8N752 1-337): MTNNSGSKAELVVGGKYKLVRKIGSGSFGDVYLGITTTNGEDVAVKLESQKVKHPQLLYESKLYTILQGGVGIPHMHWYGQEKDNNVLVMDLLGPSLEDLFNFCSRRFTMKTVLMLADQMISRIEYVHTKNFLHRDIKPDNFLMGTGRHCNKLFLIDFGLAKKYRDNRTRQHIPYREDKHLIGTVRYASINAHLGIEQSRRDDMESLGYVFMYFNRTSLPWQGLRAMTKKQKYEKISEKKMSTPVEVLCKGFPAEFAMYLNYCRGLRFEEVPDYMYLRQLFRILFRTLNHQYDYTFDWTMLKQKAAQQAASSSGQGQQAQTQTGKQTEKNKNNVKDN
The note with it: 10 µM, n=1; kinase CSNK1A1L; read-out: Percent inhibition CSNK1A1L. In outline:
as §1

Assay [4] addresses T4, panel of 203 kinases (Homo sapiens, UniProt Q8NI60).
T4 construct: purchased DiscoverX (KINOMEscan)
To be noted: 10 µM, n=1; kinase ADCK3; read-out: Percent inhibition ADCK3. In a few lines:
as §1

Assay [5] has as its target T5, panel of 203 kinases (Homo sapiens, UniProt P49761).
T5 construct: purchased DiscoverX (KINOMEscan)
To be noted: 10 µM, n=1; kinase CLK3; read-out: Percent inhibition CLK3. In outline:
as §1

Assay [6] deals with T6, panel of 203 kinases (Homo sapiens, UniProt P36896).
T6 construct: purchased DiscoverX (KINOMEscan)
T6 sequence (P36896 24-505): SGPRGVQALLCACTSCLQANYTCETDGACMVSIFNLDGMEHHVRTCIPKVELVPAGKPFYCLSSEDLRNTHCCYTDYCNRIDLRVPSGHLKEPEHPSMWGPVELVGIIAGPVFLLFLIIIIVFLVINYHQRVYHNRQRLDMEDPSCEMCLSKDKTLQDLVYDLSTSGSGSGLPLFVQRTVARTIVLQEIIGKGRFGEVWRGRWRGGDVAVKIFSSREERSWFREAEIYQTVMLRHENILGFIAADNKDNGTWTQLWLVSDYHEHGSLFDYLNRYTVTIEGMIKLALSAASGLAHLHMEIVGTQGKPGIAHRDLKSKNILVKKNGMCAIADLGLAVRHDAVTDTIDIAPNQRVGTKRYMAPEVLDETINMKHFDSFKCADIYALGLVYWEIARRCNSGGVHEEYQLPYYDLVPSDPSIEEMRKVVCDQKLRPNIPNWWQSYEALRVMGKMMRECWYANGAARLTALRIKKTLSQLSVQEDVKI
To be noted: 10 µM, n=1; kinase ACVR1B; read-out: Percent inhibition ACVR1B. In outline:
as §1

For assay [7], the target named is T7, panel of 203 kinases (Homo sapiens, UniProt P29376).
T7 construct: purchased DiscoverX (KINOMEscan)
To be noted: 10 µM, n=1; kinase LTK; read-out: Percent inhibition LTK. In a few lines:
as §1

Assay [8] has as its target T8, panel of 203 kinases (Homo sapiens, UniProt Q9UIK4).
T8 construct: purchased DiscoverX (KINOMEscan)
To be noted: 10 µM, n=1; kinase DAPK2; read-out: Percent inhibition DAPK2. In outline:
as §1

The target in assay [9] is T9, panel of 203 kinases (Homo sapiens, UniProt Q9UQM7).
T9 construct: purchased DiscoverX (KINOMEscan)
To be noted: 10 µM, n=1; kinase CAMK2A; read-out: Percent inhibition CAMK2A. In outline:
as §1

Assay [10] has as its target T10, panel of 203 kinases (Homo sapiens, UniProt P51955).
T10 construct: purchased DiscoverX (KINOMEscan)
T10 sequence (P51955 1-445): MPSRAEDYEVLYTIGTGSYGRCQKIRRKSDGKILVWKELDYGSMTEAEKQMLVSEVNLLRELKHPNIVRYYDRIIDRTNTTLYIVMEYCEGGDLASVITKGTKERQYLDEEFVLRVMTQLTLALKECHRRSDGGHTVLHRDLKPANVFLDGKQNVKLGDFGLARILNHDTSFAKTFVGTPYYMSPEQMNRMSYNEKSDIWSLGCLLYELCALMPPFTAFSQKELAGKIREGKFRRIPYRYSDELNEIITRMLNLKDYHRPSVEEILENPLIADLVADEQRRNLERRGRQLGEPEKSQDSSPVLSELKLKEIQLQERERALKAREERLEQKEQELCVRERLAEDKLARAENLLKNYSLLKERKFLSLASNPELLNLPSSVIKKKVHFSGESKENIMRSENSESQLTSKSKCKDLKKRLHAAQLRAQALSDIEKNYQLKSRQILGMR
The note with it: 10 µM, n=1; kinase NEK2; read-out: Percent inhibition NEK2. In outline:
as §1

The target of assay [11] is T11, panel of 203 kinases (Homo sapiens, UniProt P06213).
T11 construct: purchased DiscoverX (KINOMEscan)
To be noted: 10 µM, n=1; kinase INSR; read-out: Percent inhibition INSR. In outline: as §1

Assay [12] concerns the target T12, panel of 203 kinases (Homo sapiens, UniProt Q9Y243).
T12 construct: purchased DiscoverX (KINOMEscan)
To be noted: 10 µM, n=1; kinase AKT3; read-out: Percent inhibition AKT3. In outline: as §1

T4 sequence (Q8NI60 163-647): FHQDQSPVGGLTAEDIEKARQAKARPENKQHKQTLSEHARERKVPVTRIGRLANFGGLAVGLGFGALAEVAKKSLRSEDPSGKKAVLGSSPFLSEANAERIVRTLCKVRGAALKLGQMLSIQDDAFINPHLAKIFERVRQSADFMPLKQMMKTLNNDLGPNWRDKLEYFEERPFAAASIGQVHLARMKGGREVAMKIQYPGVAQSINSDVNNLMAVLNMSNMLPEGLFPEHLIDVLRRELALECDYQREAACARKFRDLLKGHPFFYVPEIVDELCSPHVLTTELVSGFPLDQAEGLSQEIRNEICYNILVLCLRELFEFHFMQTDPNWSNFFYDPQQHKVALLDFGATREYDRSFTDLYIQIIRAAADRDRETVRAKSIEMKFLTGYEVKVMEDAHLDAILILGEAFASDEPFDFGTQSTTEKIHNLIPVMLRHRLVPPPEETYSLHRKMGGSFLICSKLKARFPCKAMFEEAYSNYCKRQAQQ
T5 sequence (P49761 whole entry): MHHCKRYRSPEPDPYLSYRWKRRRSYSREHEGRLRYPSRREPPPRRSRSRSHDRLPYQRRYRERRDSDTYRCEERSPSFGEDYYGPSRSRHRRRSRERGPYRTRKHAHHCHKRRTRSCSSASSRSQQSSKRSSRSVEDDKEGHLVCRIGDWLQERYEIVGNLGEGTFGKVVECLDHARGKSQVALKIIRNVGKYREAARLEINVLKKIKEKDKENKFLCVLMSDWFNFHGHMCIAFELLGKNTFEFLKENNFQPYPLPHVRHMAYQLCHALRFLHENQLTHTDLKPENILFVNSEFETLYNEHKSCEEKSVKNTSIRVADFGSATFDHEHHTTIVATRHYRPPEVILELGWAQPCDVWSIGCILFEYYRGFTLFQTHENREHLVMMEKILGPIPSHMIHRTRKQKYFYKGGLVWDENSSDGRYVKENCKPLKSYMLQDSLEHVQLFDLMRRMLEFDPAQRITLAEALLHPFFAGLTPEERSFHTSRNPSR
T12 sequence (Q9Y243 whole entry): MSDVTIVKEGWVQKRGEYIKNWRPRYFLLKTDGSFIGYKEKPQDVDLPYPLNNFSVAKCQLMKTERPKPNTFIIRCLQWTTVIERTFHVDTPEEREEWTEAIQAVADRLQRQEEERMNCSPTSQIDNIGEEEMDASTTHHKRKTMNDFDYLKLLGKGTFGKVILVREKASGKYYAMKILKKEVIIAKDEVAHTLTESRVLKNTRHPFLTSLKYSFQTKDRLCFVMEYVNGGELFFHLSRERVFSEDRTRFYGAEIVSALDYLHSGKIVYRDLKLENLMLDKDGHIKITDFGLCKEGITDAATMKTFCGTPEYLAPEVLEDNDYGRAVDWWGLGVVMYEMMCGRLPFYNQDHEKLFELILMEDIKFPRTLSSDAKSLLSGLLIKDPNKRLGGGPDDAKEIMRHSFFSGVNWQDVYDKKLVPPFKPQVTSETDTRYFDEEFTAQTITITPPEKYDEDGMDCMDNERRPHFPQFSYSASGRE
T9 sequence (Q9UQM7 whole entry): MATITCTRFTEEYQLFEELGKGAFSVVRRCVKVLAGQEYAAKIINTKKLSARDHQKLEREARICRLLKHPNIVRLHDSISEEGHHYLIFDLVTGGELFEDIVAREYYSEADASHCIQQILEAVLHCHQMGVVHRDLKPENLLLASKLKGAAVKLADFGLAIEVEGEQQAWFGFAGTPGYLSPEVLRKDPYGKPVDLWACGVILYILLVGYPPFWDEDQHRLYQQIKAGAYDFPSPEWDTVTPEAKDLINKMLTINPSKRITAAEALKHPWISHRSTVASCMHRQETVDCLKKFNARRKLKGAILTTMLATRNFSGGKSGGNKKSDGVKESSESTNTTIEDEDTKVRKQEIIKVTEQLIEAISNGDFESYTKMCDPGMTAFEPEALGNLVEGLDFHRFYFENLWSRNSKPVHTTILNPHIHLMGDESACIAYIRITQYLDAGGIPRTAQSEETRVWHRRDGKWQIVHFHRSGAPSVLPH
T1 sequence (P08069 31-1367): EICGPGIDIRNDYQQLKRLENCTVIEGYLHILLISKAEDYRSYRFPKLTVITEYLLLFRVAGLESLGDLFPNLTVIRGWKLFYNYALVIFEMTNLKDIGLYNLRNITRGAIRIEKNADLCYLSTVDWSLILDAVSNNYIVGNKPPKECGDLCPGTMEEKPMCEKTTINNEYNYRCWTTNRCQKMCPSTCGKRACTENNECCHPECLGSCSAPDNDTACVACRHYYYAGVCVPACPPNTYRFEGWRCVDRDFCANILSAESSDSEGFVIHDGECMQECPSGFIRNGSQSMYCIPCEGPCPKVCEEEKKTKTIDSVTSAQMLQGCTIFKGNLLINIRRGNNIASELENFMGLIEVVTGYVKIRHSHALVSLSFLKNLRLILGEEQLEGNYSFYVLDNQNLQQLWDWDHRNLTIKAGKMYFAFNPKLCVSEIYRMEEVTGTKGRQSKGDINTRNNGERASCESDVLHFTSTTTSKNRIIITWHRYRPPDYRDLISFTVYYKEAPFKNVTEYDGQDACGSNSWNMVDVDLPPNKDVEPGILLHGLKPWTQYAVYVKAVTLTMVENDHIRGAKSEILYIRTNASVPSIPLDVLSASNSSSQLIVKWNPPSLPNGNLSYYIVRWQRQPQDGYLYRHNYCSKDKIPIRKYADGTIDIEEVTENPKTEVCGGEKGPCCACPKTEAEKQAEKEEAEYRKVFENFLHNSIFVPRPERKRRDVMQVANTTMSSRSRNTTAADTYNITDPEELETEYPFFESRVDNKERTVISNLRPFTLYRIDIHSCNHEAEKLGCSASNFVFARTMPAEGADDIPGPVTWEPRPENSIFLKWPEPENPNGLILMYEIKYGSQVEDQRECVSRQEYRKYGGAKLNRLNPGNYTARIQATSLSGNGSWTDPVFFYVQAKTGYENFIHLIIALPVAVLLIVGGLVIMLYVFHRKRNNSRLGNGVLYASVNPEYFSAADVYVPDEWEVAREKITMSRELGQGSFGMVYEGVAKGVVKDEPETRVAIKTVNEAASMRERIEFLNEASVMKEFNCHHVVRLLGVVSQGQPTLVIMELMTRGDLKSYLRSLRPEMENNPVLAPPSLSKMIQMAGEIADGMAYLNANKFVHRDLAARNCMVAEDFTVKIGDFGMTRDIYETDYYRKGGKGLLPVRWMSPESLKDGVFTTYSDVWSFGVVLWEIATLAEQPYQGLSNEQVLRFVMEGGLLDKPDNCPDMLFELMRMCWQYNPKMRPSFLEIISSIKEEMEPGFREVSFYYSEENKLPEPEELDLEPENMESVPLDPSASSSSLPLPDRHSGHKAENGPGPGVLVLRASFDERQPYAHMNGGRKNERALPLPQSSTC
T11 sequence (P06213 28-1382): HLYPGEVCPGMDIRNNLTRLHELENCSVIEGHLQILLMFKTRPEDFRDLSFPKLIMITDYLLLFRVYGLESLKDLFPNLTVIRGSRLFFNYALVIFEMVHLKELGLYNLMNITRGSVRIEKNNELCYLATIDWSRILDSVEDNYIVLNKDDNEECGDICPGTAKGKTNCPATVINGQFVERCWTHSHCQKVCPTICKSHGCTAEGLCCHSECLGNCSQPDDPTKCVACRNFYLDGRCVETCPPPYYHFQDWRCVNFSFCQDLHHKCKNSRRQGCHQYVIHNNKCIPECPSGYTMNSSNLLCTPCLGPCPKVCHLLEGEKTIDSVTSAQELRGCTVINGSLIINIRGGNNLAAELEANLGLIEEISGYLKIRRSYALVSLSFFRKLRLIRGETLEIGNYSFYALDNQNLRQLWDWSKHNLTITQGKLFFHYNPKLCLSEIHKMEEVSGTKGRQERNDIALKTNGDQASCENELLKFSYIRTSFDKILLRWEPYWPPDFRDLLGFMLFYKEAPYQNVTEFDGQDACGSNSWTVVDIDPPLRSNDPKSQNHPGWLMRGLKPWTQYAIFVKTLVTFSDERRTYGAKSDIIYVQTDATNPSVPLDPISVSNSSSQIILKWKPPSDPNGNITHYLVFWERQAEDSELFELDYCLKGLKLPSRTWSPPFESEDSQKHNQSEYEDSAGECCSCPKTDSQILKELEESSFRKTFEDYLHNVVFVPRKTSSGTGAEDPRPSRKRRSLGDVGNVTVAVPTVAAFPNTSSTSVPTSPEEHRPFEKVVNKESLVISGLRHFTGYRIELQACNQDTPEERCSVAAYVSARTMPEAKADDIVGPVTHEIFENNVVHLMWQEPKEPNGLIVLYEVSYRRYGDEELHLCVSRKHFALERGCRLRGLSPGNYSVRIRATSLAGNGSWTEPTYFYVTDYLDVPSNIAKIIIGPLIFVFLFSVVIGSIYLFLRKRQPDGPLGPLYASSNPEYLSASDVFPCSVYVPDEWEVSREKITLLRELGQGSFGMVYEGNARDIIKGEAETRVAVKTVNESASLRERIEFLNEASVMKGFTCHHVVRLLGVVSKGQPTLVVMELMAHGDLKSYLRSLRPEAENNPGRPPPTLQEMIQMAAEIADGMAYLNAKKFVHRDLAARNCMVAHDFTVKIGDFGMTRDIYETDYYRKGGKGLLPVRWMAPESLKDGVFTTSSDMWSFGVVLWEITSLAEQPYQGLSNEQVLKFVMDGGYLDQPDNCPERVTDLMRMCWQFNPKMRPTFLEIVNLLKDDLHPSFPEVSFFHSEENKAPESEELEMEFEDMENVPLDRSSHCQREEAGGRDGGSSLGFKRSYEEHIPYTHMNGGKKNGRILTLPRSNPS
T8 sequence (Q9UIK4 whole entry): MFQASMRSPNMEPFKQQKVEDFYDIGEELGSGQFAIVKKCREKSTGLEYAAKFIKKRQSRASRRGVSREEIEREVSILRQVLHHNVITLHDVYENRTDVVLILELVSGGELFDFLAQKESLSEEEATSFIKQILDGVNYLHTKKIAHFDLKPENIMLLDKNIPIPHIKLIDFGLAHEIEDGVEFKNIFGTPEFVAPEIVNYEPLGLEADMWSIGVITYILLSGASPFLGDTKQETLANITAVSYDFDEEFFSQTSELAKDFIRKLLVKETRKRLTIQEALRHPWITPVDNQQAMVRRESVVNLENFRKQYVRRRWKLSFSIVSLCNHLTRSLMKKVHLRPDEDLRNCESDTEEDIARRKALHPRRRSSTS

For orientation: inhibition means the change of the read-out against control, counted positive when it falls. With `CN1CCN(c2ccc(Nc3nccc(-c4cnn5ncccc45)n3)cc2C#N)CC1` [Compound 1], the inhibition at 10 µM in assay [1] came to 99.4%; in assay [2] it was 0%; in assay [3], 100%; in assay [4] it was 93.7%; in assay [5], 98.7%; in assay [6] it was 77.1%. Further, the inhibition at 10 µM in assay [7] was 0%; in [8], 92.2%; in assay [9] it was 98.7%; in assay [10], 98.5%; in assay [11], 94.3%; in assay [12] it was 0%.

`COc1ccc(Nc2nccc(-c3cnn4ncccc34)n2)cc1` [Compound 2]: the inhibition at 10 µM came out at 98.1% in [1]; 0% in assay [2]; 89.7% in assay [3]; 99.5% in assay [4]; 94.8% in assay [5]; 0% in assay [6]. Further, the inhibition at 10 µM is 80.8% in assay [7]; 0% in assay [8]; 82.5% in assay [9]; 99.9% in assay [10]; 76.9% in assay [11]; 0% in [12].

On to `Cc1ccc(O)cc1Nc1ccnc(Nc2cccc(C(N)=O)c2)n1` [Compound 3], for which the inhibition at 10 µM in [1] was 0%; in [2], 99.2%; in assay [3], 99.8%; in assay [4] it was 0%; in [5], 0%; in [6], 96.5%. The inhibition at 10 µM in [7], in assay [8], in assay [9], in assay [10], in [11] and in assay [12] was 0% throughout.

Consider `Cc1ccc(O)cc1N(C)c1ccnc(Nc2cccc(S(N)(=O)=O)c2)n1` [Compound 4], for which the inhibition at 10 µM came out at 0% in [1]; 97% in [2]; 100% in assay [3]; 91.1% in assay [4]; 70.5% in [5]; 99% in assay [6]. For the same compound, the inhibition at 10 µM in [7] came out at 69.7%; in [8], 0%; in assay [9], 0%; in assay [10], 0%; in [11], 0%; in assay [12], 0%.

With `Fc1cccc(COc2ccc(Nc3ncnc4c3CN(CCN3CCOCC3)CC4)cc2Cl)c1` [Compound 6], the inhibition at 10 µM in assay [1], in [2], in [3], in [4], in assay [5] and in [6] was 0% throughout. Also, the inhibition at 10 µM in assay [7], in assay [8], in assay [9], in [10], in assay [11] and in assay [12] was 0% in each case.

Consider `COc1cc(Nc2nccc(-c3sc(N)nc3-c3cccc(NC(=O)c4c(F)cccc4F)c3)n2)cc(OC)c1OC` [Compound 7], for which the inhibition at 10 µM in assay [1] was found to be 95.9%; in assay [2], 0%; in [3], 0%; in assay [4] it was 100%; in assay [5], 0%; in assay [6], 74.9%. The inhibition at 10 µM stood at 0% in assay [7]; 0% in [8]; 0% in assay [9]; 100% in assay [10]; 97.3% in assay [11]; 0% in assay [12].

For `C[C@@H](Oc1cc(-c2cnc3ccccn23)sc1C(N)=O)c1ccccc1Cl` [Compound 8], the inhibition at 10 µM in [1], in [2], in assay [3], in [4], in assay [5] and in assay [6] was 0% in each case. Moreover, the inhibition at 10 µM in assay [7] stood at 0%; in [8], 88.3%; in [9], 66.5%; in assay [10], 99.4%; in assay [11], 0%; in assay [12] it was 0%.

Regarding `c1ccc(COc2cccc(-c3ccnc4[nH]ccc34)c2)cc1` [Compound 9], the inhibition at 10 µM in assay [1], in [2], in [3], in assay [4], in [5] and in assay [6] was 0% each time. Besides, the inhibition at 10 µM in assay [7], in assay [8], in [9], in assay [10], in assay [11] and in assay [12] was 0% in each case.

As to `Clc1ccc(Nc2ncc(-c3ccccc3)s2)cc1` [Compound 10], the inhibition at 10 µM in assay [1], in [2], in [3], in [4], in [5] and in assay [6] was 0% throughout. The inhibition at 10 µM in [7], in [8], in [9], in assay [10], in assay [11] and in assay [12] was 0% throughout.

Regarding `Nc1ncc2c(-c3ccncc3)c[nH]c2n1` [Compound 11], the inhibition at 10 µM in assay [1] was determined as 0%; in [2] it was 0%; in assay [3], 70.7%; in [4] it was 0%; in assay [5] it was 84.9%; in [6], 0%. The inhibition at 10 µM in assay [7] was determined as 0%; in [8] it was 0%; in assay [9] it was 77.6%; in assay [10] it was 0%; in assay [11], 0%; in assay [12], 0%.
